# Data as given in patent US20100099773A1, “INCLUSION COMPLEX OF S[…] BETA-CYCLODEXTRIN” (priority 2006, published 2010).
# Key:
# Assay type in all cases: physicochemical
# [1] = Photo-stability after UV-irradiation, impurities by HPLC; details: for Content of impurities, UV: after UV-irradiation for 120 hours (total radiation dosage: 200 watt); for Content of impurities, Initial: before UV-irradiation
# Protocol: Sibutramine free base, sibutramine hydrochloride monohydrate and sibutramine inclusion complex (Examples 1 and 2) were compared in terms of photo-stability.
# After UV-irradiation for 120 hours (total radiation dosage: 200 watt), the content of impurities was measured with high performance liquid chromatography (HPLC).
# [2] = Solution stability (pH 5.2) at high temperature, impurities by HPLC; details: solution 1 mg/mL; for Total impurities, 4th day: 4 days; for Total impurities, 7th day: 7 days; for Total impurities, 14th day: 14 days
# Protocol: Solution Stability (pH 5.2)
# Sibutramine free base, sibutramine hydrochloride monohydrate and sibutramine inclusion complex (Examples 1 and 2) were compared in terms of solution stability at high temperature.
# Specifically, each compound was dissolved into the concentration of 1 mg/mL and pH 5.2, and the solution was moved to a 20 mL vial. Solution stability test was conducted at 60° C. and 70° C., respectively, by measuring the content of impurities with high performance liquid chromatography (HPLC) after the storage for 4, 7 and 14 days.
# [3] = Temperature & humidity stability, impurities by HPLC; details: for Content of impurities, 60° C., 75%: stored at 60° C. 75% for 2 weeks; for Content of impurities, 60° C., 93%: stored at 60° C. 93% for 2 weeks; for Content of impurities, 70° C., 75%: stored at 70° C. 75% for 2 weeks
# Protocol: Temperature & Humidity Stability
# Sibutramine free base, sibutramine hydrochloride monohydrate and sibutramine inclusion complex (Examples 1 and 2) were compared in terms of temperature and humidity stability.
# Specifically, each compound was stored under the condition selected from the group consisting of 60° C. 75%, 60° C. 93% and 70° C. 75% for 2 weeks. The content impurities was measured with high performance liquid chromatography (HPLC).
Structure (SMILES),"Content of impurities, UV [1]","Content of impurities, Initial [1]","Total impurities, 4th day ([2]; pH 5.2, 60 C.) [%]","Total impurities, 7th day ([2]; pH 5.2, 60 C.) [%]","Total impurities, 14th day ([2]; pH 5.2, 60 C.) [%]","Total impurities, Initial ([2]; pH 5.2, 60 C.) [%]","Total impurities, 4th day ([2]; pH 5.2, 70 C.) [%]","Total impurities, 7th day ([2]; pH 5.2, 70 C.) [%]","Total impurities, 14th day ([2]; pH 5.2, 70 C.) [%]","Total impurities, Initial ([2]; pH 5.2, 70 C.) [%]","Temperature and humidity stability, in words ([3]; comparison of Table 3)","Content of impurities, Initial [3]","Content of impurities, 60° C., 75% [3]","Content of impurities, 60° C., 93% [3]","Content of impurities, 70° C., 75% [3]"
"CC(C)CC(N(C)C)C1(c2ccc(Cl)cc2)CCC1 (centres unmarked) [Sibutramine free base, N,N-dimethyl-1-[1-(4-chlorophenyl)-cyclobutyl]-3-methylbutylamine]",0.33,0.00,7.59,13.77,17.16,0.00,10.04,17.05,20.52,0.00,most unstable,0.00,5.65,6.09,8.27
CC(C)CC(N(C)C)C1(c2ccc(Cl)cc2)CCC1.Cl (centres unmarked) [Sibutramine hydrochloride monohydrate],0.11,0.06,0.02,0.02,0.09,0.00,1.56,2.09,4.49,0.00,,0.00,0.06,0.07,0.13
